Source: patent US20250386822A1, “Microcapsules controlling the diffusion of an active organic compound” (KAPSERA, priority 2022, published 2025)

Legend:
[1] = Pheromone diffusion duration by SPME pre-concentration and GCMS, closed temperature-controlled chamber (Example 1); format: physicochemical; settings: pine processionary pheromone; paraffin oil core, 1% pheromone by weight
Excerpt: FIG. 1: This graph represents the abundance of the main compound of the non-encapsulated pheromone after preconcentration using the Solid Phase Micro-Extraction (SPME) technique, separation of the pheromone compounds by gas chromatography and detection by mass spectrometry (GCMS) in a closed temperature-controlled chamber. FIG. 2: This graph represents the abundance of the main compound of the encapsulated pheromone after preconcentration using the Solid Phase Micro-Extraction (SPME) technique, separation of the pheromone compounds by gas chromatography and detection by mass spectrometry (GCMS) in a closed temperature-controlled chamber. An analytical method was developed to detect the pheromone's main compound. The low quantities of analytes led to the choice of a pre-concentration method known as Solid Phase Micro-Extraction (SPME) and Gas Chromatography-Mass Spectrometry (GCMS).

[2] = Closed system: study of thermodynamic equilibrium, SPME-GC/MS in sealed 20 mL flasks (Example 2); format: physicochemical; settings: closed 20 mL flask; European grapevine moth pheromone
Protocol: In order to establish the diffusion profiles of the samples at short times and to obtain initial information on any differences between the capsules, a study was carried out in a closed system. The experiment consists of introducing the samples into 20 mL hermetically sealed flasks and following the evolution of the quantity extracted by the SPME fibre over time, until equilibrium is reached. Measurements were initially taken over short periods (one measurement every 45 minutes, corresponding to the analysis time) and then, once the maximum concentration had been reached, measurements were taken at longer intervals to ensure that equilibrium had been reached (one measurement every 2.5 hours). These tests were carried out using the European grapevine moth pheromone, (E)-7-(Z)-9-dodecadienyl acetate (C14H24O2).

Structure (SMILES)	duration of the pheromone's diffusion [1]	time until equilibrium is reached [2] [h]
CC/C=C\C#CCCCCCCCCCCOC(C)=O [Example 1 non-encapsulated pheromone, Z-13-hexadecen-11-yn-1-yl acetate]	less than 10 days	–
CC/C=C\C=C\CCCCCCOC(C)=O [Example 2 non-encapsulated pheromone, (E)-7-(Z)-9-dodecadienyl acetate]	–	> 50
